The NIST ThermoML archive (doi:10.1021/acs.jced.8b00692)

Test: xn = mol fraction of the nth substance listed
Details: 102 kPa, Liquid; for viscosity: Concentric cylinders viscometry; for speed of sound: Frequency=3 MHz, Single path-length method; for mass density: Vibrating tube method

CCCCCCCCCC1CCCCC1 [nonylcyclohexane] + CCCCCCCCCCCCCCCC
Details	mass density [kg/m3]	speed of sound [m/s]	viscosity [mPa·s]
293.15 K, x1 = 0.2005	781.15	1363.9	3.58
293.15 K, x1 = 0.4001	789.28	1371.3	3.72
293.15 K, x1 = 0.5002	793.52	1375.2	3.79
293.15 K, x1 = 0.5998	797.86	1379.1	3.89
293.15 K, x1 = 0.8002	806.91	1387.3	4.07
293.15 K, x1 = 1	816.41	1397.2	4.34
303.15 K, x1 = 0.2005	774.24	1326.7	2.84
303.15 K, x1 = 0.4001	782.39	1334.2	2.95
303.15 K, x1 = 0.5002	786.64	1338.1	3
303.15 K, x1 = 0.5998	790.99	1342	3.06
303.15 K, x1 = 0.8002	800.06	1350.2	3.2
303.15 K, x1 = 1	809.57	1359.6	3.39
313.15 K, x1 = 0.2005	767.33	1290.2	2.3
313.15 K, x1 = 0.4001	775.51	1297.7	2.38
313.15 K, x1 = 0.5002	779.77	1301.6	2.43
313.15 K, x1 = 0.5998	784.12	1305.6	2.47
313.15 K, x1 = 0.8002	793.21	1313.8	2.58
313.15 K, x1 = 1	802.74	1322.9	2.72
323.15 K, x1 = 0.2005	760.43	1254.4	1.9
323.15 K, x1 = 0.4001	768.63	1261.9	1.96
323.15 K, x1 = 0.5002	772.9	1265.8	2
323.15 K, x1 = 0.5998	777.25	1269.8	2.03
323.15 K, x1 = 0.8002	786.35	1278.1	2.12
323.15 K, x1 = 1	795.8	1287.1	2.22
333.15 K, x1 = 0.2005	753.54	1219.5	1.6
333.15 K, x1 = 0.4001	761.74	1226.9	1.65
333.15 K, x1 = 0.5002	766.02	1230.9	1.68
333.15 K, x1 = 0.5998	770.38	1234.9	1.7
333.15 K, x1 = 0.8002	779.49	1243.4	1.77
333.15 K, x1 = 1	789.05	1252.2	1.85
343.15 K, x1 = 0.2005	746.6	–	1.38
343.15 K, x1 = 0.4001	754.9	–	1.4
343.15 K, x1 = 0.5002	759.2	–	1.44
343.15 K, x1 = 0.5998	763.6	–	1.45
343.15 K, x1 = 0.8002	772.7	–	1.5
343.15 K, x1 = 1	782.2	–	1.57
353.15 K, x1 = 0.2005	739.7	–	1.18
353.15 K, x1 = 0.4001	748	–	1.21
353.15 K, x1 = 0.5002	752.3	–	1.23
353.15 K, x1 = 0.5998	756.8	–	1.25
353.15 K, x1 = 0.8002	765.8	–	1.3
353.15 K, x1 = 1	775.4	–	1.35
363.15 K, x1 = 0.2005	732.7	–	1.05
363.15 K, x1 = 0.4001	741.1	–	1.06
363.15 K, x1 = 0.5002	745.4	–	1.09
363.15 K, x1 = 0.5998	749.8	–	1.09
363.15 K, x1 = 0.8002	758.9	–	1.13
363.15 K, x1 = 1	768.5	–	1.2
373.15 K, x1 = 0.2005	725.7	–	0.908
373.15 K, x1 = 0.4001	734.2	–	0.931
373.15 K, x1 = 0.5002	738.5	–	0.944
373.15 K, x1 = 0.5998	742.9	–	0.96
373.15 K, x1 = 0.8002	752	–	1
373.15 K, x1 = 1	761.6	–	1.03

CCCCCCCCC1CCCCC1 [octylcyclohexane] + CCCCCCCCCCCCCCCC
Details	mass density [kg/m3]	speed of sound [m/s]	viscosity [mPa·s]
293.15 K, x1 = 0.2001	780.29	1361.6	3.46
293.15 K, x1 = 0.3999	787.74	1366.8	3.46
293.15 K, x1 = 0.5002	791.67	1369.7	3.46
293.15 K, x1 = 0.6009	795.83	1372.6	3.44
293.15 K, x1 = 0.8006	804.62	1378.6	3.46
293.15 K, x1 = 1	814.14	1387	3.52
303.15 K, x1 = 0.2001	773.36	1324.4	2.75
303.15 K, x1 = 0.3999	780.82	1329.6	2.74
303.15 K, x1 = 0.5002	784.77	1332.1	2.75
303.15 K, x1 = 0.6009	788.93	1335	2.74
303.15 K, x1 = 0.8006	797.71	1341.3	2.76
303.15 K, x1 = 1	807.22	1349.1	2.79
313.15 K, x1 = 0.2001	766.44	1287.9	2.24
313.15 K, x1 = 0.3999	773.91	1293	2.23
313.15 K, x1 = 0.5002	777.87	1295.4	2.24
313.15 K, x1 = 0.6009	782.03	1298.3	2.23
313.15 K, x1 = 0.8006	790.79	1304.6	2.24
313.15 K, x1 = 1	800.29	1312.1	2.27
323.15 K, x1 = 0.2001	759.53	1252	1.85
323.15 K, x1 = 0.3999	767	1257.2	1.84
323.15 K, x1 = 0.5002	770.97	1259.5	1.85
323.15 K, x1 = 0.6009	775.12	1262.4	1.85
323.15 K, x1 = 0.8006	783.86	1268.6	1.85
323.15 K, x1 = 1	793.36	1275.9	1.88
333.15 K, x1 = 0.2001	752.62	1217.1	1.56
333.15 K, x1 = 0.3999	760.08	1222.1	1.55
333.15 K, x1 = 0.5002	764.05	1224.6	1.56
333.15 K, x1 = 0.6009	768.2	1227.3	1.56
333.15 K, x1 = 0.8006	776.93	1233.7	1.56
333.15 K, x1 = 1	786.42	1240.5	1.58
343.15 K, x1 = 0.2001	745.7	–	1.34
343.15 K, x1 = 0.3999	753.2	–	1.33
343.15 K, x1 = 0.5002	757.2	–	1.35
343.15 K, x1 = 0.6009	761.3	–	1.33
343.15 K, x1 = 0.8006	770	–	1.34
343.15 K, x1 = 1	779.5	–	1.36
353.15 K, x1 = 0.2001	738.8	–	1.15
353.15 K, x1 = 0.3999	746.3	–	1.15
353.15 K, x1 = 0.5002	750.2	–	1.15
353.15 K, x1 = 0.6009	754.3	–	1.15
353.15 K, x1 = 0.8006	763.1	–	1.16
353.15 K, x1 = 1	772.5	–	1.16
363.15 K, x1 = 0.2001	731.8	–	1.02
363.15 K, x1 = 0.3999	739.3	–	1
363.15 K, x1 = 0.5002	743.3	–	1.03
363.15 K, x1 = 0.6009	747.4	–	1.01
363.15 K, x1 = 0.8006	756.1	–	1.01
363.15 K, x1 = 1	765.5	–	1.04
373.15 K, x1 = 0.2001	724.8	–	0.887
373.15 K, x1 = 0.3999	732.3	–	0.889
373.15 K, x1 = 0.5002	736.3	–	0.89
373.15 K, x1 = 0.6009	740.4	–	0.895
373.15 K, x1 = 0.8006	749.1	–	0.897
373.15 K, x1 = 1	758.5	–	0.899
